Among the test systems are LOX IMVI melanoma; NCI-H522 lung; MCF7 breast; OVCAR-3 ovarian; MDA-MB-231 breast; NCI-H226 lung; MALME-3M melanoma; SF-295 CNS; M14 melanoma; HL-60(TB) leukemia.
What all share (assay): NCI tumour cell line growth inhibition, 48 h

Where “and” joins values, the source holds several entries; their conditions need not be identical. Equal values may be shown once.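 Dose response: 5 concentrations. Exposure: 48 h. Format: 96-well plates. Endpoint: linear interpolation; highest concentration if not reached. At the GI50, growth is halved. TGI is the concentration that stops growth completely.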 Some results are limits rather than exact numbers.

With `CN(CCc1ccccn1)c1ccc2c(c1)C(=O)c1ccccc1-2`, the TGI in the test on LOX IMVI melanoma, in the test on NCI-H522 lung, in the test on MCF7 breast, in the test on OVCAR-3 ovarian, in the test on MDA-MB-231 breast and with NCI-H226 lung was greater than 100 µM throughout. Besides, the TGI in the test on MALME-3M melanoma, with SF-295 CNS and in the test on M14 melanoma was greater than 100 µM each time.

Take `CCOc1nc2c(N3CCCC3)nc(N3CCNCC3)nc2nc1NCc1ccccc1`: the TGI in the test on LOX IMVI melanoma was determined as 2.97 µM; in the test with NCI-H522 lung, 2.2 µM; in the test with MCF7 breast it was 2.86 µM; in the test with OVCAR-3 ovarian it was 2.32 µM; in the test with MDA-MB-231 breast it was 2.84 µM; in the test with NCI-H226 lung, 3.82 µM. For the same compound, the TGI turned out to be 3.3 µM in the test with MALME-3M melanoma, 3.37 µM with SF-295 CNS, 2.99 µM with HL-60(TB) leukemia and 2.98 µM in the test on M14 melanoma.

Turning to `COC(=O)c1c(O)ccc2c1c1cc3ccccc3c(O)c1n2CCc1ccc(OC)c(OC)c1`, the TGI in the test on NCI-H522 lung, in the test with MCF7 breast, in the test on OVCAR-3 ovarian, with MDA-MB-231 breast, in the test with NCI-H226 lung and with MALME-3M melanoma was greater than 100 µM throughout. The TGI in the test with SF-295 CNS, with HL-60(TB) leukemia and in the test with M14 melanoma was greater than 100 µM throughout.

Take `O=P(NCCCO)(OCc1ccccc1)N(CCCl)CCCl` (configuration not stated): the TGI in the test with LOX IMVI melanoma, in the test on NCI-H522 lung, in the test with MCF7 breast, in the test with OVCAR-3 ovarian, in the test on NCI-H226 lung and in the test on MALME-3M melanoma was greater than 100 µM throughout. The TGI with SF-295 CNS and in the test on HL-60(TB) leukemia was greater than 100 µM throughout.

Regarding `O=[N+]([O-])c1ccc(N=Nc2c(O)[nH]c3ccccc23)c([N+](=O)[O-])c1`, the TGI with LOX IMVI melanoma was 20.7 µM; with NCI-H522 lung, greater than 100 µM; in the test on MCF7 breast, 80.7 µM; with OVCAR-3 ovarian, 13.9 µM; in the test with MDA-MB-231 breast, 29.9 µM; in the test on NCI-H226 lung, 75.5 µM. Further, the figures for the TGI with SF-295 CNS, with HL-60(TB) leukemia and in the test on M14 melanoma were 25.1 µM, greater than 100 µM and greater than 100 µM, respectively.

As for `Cc1c(-c2ccccc2)[nH]c2cn[nH]c(=O)c12`, the TGI in the test with LOX IMVI melanoma, with NCI-H522 lung, with MCF7 breast, in the test with OVCAR-3 ovarian, in the test with MDA-MB-231 breast and in the test on MALME-3M melanoma was greater than 100 µM each time. The TGI with SF-295 CNS, with HL-60(TB) leukemia and with M14 melanoma was greater than 100 µM each time.

Regarding `O=C(Nc1ccccc1)Oc1ccc(C(=S)Nc2ccc(Br)cc2)cc1`, the TGI in the test with LOX IMVI melanoma stood at 24.8 µM; in the test on NCI-H522 lung, 29.5 µM; in the test on MCF7 breast, 60.9 µM; in the test on OVCAR-3 ovarian, 52.8 µM; with MALME-3M melanoma, 65.1 µM; in the test with SF-295 CNS, 84.3 µM. In addition, in the test with HL-60(TB) leukemia, the TGI turned out to be 30.3 µM.

Regarding `COc1ccc(N2C(=O)C(=O)C3(CCCCC3)C2=O)c2ccccc12`, the TGI in the test on LOX IMVI melanoma, in the test on NCI-H522 lung, in the test on MCF7 breast, in the test on MDA-MB-231 breast, in the test with NCI-H226 lung and in the test on MALME-3M melanoma was greater than 10 µM each time. Also, the TGI in the test with SF-295 CNS, with HL-60(TB) leukemia and in the test on M14 melanoma was greater than 10 µM in each case.

As to `COc1ccc2nc3cc(Cl)ccc3c(NCCCN3CCN(CCCNc4ccc5nnn6c7ccccc7c(=O)c4c56)CC3)c2c1`, the TGI in the test with LOX IMVI melanoma was greater than 25 µM; in the test with NCI-H522 lung it was greater than 23.8 µM; in the test on MCF7 breast, 7.11 µM; in the test on OVCAR-3 ovarian, greater than 25 µM; with MDA-MB-231 breast, greater than 18.2 µM; with NCI-H226 lung, greater than 25 µM. Also, the TGI in the test with SF-295 CNS is greater than 25 µM; in the test on HL-60(TB) leukemia it was greater than 18.7 µM; in the test on M14 melanoma, greater than 25 µM.

Consider `C#C[C@]1(O)CC[C@H]2[C@@H]3CCc4cc(O)ccc4[C@H]3CC[C@@]21C`, for which the TGI was greater than 100 µM in the test on LOX IMVI melanoma; 43.5 µM in the test with NCI-H522 lung; greater than 100 µM in the test on OVCAR-3 ovarian; 92.8 µM in the test with NCI-H226 lung; greater than 100 µM in the test on MALME-3M melanoma; 74.8 µM in the test with SF-295 CNS. The TGI in the test on HL-60(TB) leukemia was 94 µM.

With `CC(=O)c1ccc(Nc2c3ccccc3nc3occc23)cc1`, the TGI was greater than 100 µM in the test with LOX IMVI melanoma; less than 0.01 µM in the test with NCI-H522 lung; less than 0.128 µM with MCF7 breast; 0.541 µM in the test with MDA-MB-231 breast; 45.2 µM in the test on NCI-H226 lung; 29.4 µM in the test with MALME-3M melanoma. Moreover, the TGI with HL-60(TB) leukemia was less than 0.01 µM; in the test on M14 melanoma, 2.92 µM.

As for `COc1cc(C2S/C(=C/c3ccccc3)C(=O)N2c2cccc(NC(C)=O)c2)cc(OC)c1OC` (configuration not stated), the TGI in the test with LOX IMVI melanoma is 54.7 µM; in the test on NCI-H522 lung, 47.1 µM; in the test with MCF7 breast it was greater than 100 µM; with MDA-MB-231 breast, 50.7 µM; in the test with NCI-H226 lung, greater than 100 µM; in the test with MALME-3M melanoma it was 98.3 µM. The TGI in the test on SF-295 CNS and with M14 melanoma was greater than 100 µM throughout.

In the case of `O=C(O)c1cc2ccccc2c(N=Nc2ccc(S(=O)(=O)Nc3ncccn3)cc2)c1O`, the TGI with NCI-H522 lung, with MCF7 breast, with OVCAR-3 ovarian, with MDA-MB-231 breast, in the test with NCI-H226 lung and in the test with MALME-3M melanoma was greater than 100 µM in each case. Moreover, the TGI in the test with SF-295 CNS, in the test on HL-60(TB) leukemia and with M14 melanoma was greater than 100 µM each time.

On to `COc1ccc(CCn2cncn2)cc1`, for which the TGI in the test with NCI-H522 lung, with OVCAR-3 ovarian, with NCI-H226 lung, in the test with SF-295 CNS, in the test on HL-60(TB) leukemia and with M14 melanoma was greater than 100 µM in each case.

Regarding `Cc1ccc(-c2cn3c(nc4ccccc43)c(/C=C/c3ccco3)n2)cc1`, the TGI with LOX IMVI melanoma, in the test with MCF7 breast, in the test with OVCAR-3 ovarian, in the test on MDA-MB-231 breast, in the test with NCI-H226 lung and with MALME-3M melanoma was greater than 100 µM in each case. Besides, the TGI in the test on HL-60(TB) leukemia and in the test on M14 melanoma was greater than 100 µM each time.

Regarding `Oc1ccccc1C=Nc1ccc(-c2nc3ccccc3s2)cc1`, the TGI in the test with LOX IMVI melanoma is greater than 100 µM; in the test on NCI-H522 lung, 54.7 µM; in the test on OVCAR-3 ovarian, 88 µM; with NCI-H226 lung it was 99.1 µM; in the test with MALME-3M melanoma, greater than 100 µM; with SF-295 CNS, 55.9 µM. The TGI with HL-60(TB) leukemia was 91.2 µM; in the test on M14 melanoma, greater than 100 µM.

Take `N#C/C(=C(/O)CCl)c1nc2ccccc2o1`: the TGI worked out at 4.15 µM with LOX IMVI melanoma; 8.59 µM with MCF7 breast; 20.3 µM in the test with OVCAR-3 ovarian; 9.41 µM in the test with MDA-MB-231 breast; 5.07 µM in the test with NCI-H226 lung; 29.1 µM with MALME-3M melanoma. In addition, the TGI stood at 6.74 µM with SF-295 CNS, 7.04 µM in the test on HL-60(TB) leukemia and 21 µM in the test with M14 melanoma.

For `CN(C)c1ccc(-c2ccc(-c3ccc(C(=N)N)cn3)o2)cc1`, the GI50 with NCI-H522 lung was 1.84 µM; with MCF7 breast, 1.61 µM; in the test with OVCAR-3 ovarian, 1.76 µM; in the test on MDA-MB-231 breast it was 1.8 µM; in the test on MALME-3M melanoma, 2.04 µM; in the test with SF-295 CNS, 2 µM. Moreover, the GI50 was 1.76 µM in the test with HL-60(TB) leukemia and 1.85 µM in the test on M14 melanoma. In addition, the TGI in the test with NCI-H522 lung turned out to be 3.44 µM; in the test on MCF7 breast, 3.52 µM; in the test with OVCAR-3 ovarian it was 3.24 µM; in the test with MDA-MB-231 breast it was 3.77 µM; in the test on MALME-3M melanoma it was 3.93 µM; with SF-295 CNS it was 3.81 µM. For the same compound, the TGI was 3.73 µM in the test on HL-60(TB) leukemia and 3.47 µM with M14 melanoma.

`C=C1C(O)C2(O)OCC34C(CC5C(C)=CC(=O)C(O)C5(C)C23)OC(=O)C(OC(=O)C/C=C/CCCCCCCC)C14` (configuration not stated): the TGI in the test with LOX IMVI melanoma came to 2 µM; in the test on NCI-H522 lung, 0.0202 µM; in the test with NCI-H226 lung, 0.029 µM; in the test on MALME-3M melanoma, 0.0229 µM; in the test on HL-60(TB) leukemia it was 0.2 µM.

Regarding `O=c1c2cc(O)ccc2n2nnc3ccc(NCCNCCO)c1c32`, the TGI is 13.4 µM and 10.2 µM in the test on LOX IMVI melanoma; 2.33 µM and 4.8 µM in the test on NCI-H522 lung; > 86 µM and 16.3 µM in the test on OVCAR-3 ovarian; 26.7 µM and 11.5 µM in the test on NCI-H226 lung; 20.5 µM and 11.5 µM with MALME-3M melanoma; > 45.5 µM and 35.2 µM in the test on SF-295 CNS. For the same compound, the TGI in the test on HL-60(TB) leukemia was > 42.2 µM and 13.1 µM; with M14 melanoma it was 31.2 µM and 17.9 µM. Further, the GI50 in the test with NCI-H522 lung was 0.582 µM and 1.47 µM; in the test on OVCAR-3 ovarian, 14.8 µM and 3.75 µM; in the test on MALME-3M melanoma, 6.02 µM and 2.56 µM; with HL-60(TB) leukemia, 6.46 µM and 1.88 µM; with M14 melanoma it was 11.9 µM and 5.64 µM.

Turning to `CCCCCCCCCCCCCCCc1nc(=S)[nH][nH]1`, the TGI with LOX IMVI melanoma was greater than 100 µM; in the test with NCI-H522 lung, 68.2 µM; with OVCAR-3 ovarian, greater than 100 µM; with MALME-3M melanoma it was greater than 100 µM; with HL-60(TB) leukemia it was greater than 100 µM; in the test with M14 melanoma it was greater than 100 µM.

The values are drawn from PubChem BioAssay (NCI).
